# Laboratory results: patent US20240366577A1, “CONTROLLED LONG-TERM DRUG DELIVERY AND METHODS THEREOF” (THE JOHNS HOPKINS UNIVERSITY, priority 2021, published 2024)
# What was measured:
# Format in all cases: in vivo, BALB/c mice
# [1] = body weight of treated tumor-bearing mice; settings: crystals in ~100-200 μl saline, IP or SC, any site or dose tested
# Description: However, due to the highly hydrophobic nature of sorafenib, its daily 25 mg/kg bolus dosing regimen required regular used of a solvent solution made up of ˜60% of the strong organic solvent dimethylsulfoxide (DMSO). […] In stark contrast, no DMSO was required for delivery of sorafenib crystals, for which instead simply utilized ˜100-200 μl of saline to inject into the desired IP or SC tissue sites.
# Once tumors had reached an average volume of ˜220-250 mm^3, mice were administered either subcutaneously or intraperitoneally with 3 or 10 mg of crystalline sorafenib, diameter ˜150-200 μm, suspended in 200 μL of sterile saline using an 18 g needle. As a control, mice (n=4) were dosed with sorafenib dissolved at a concentration of 4 mg/mL in a solution of 65% DMSO (remainder DPBS). Mice were dosed either subcutaneously or intraperitoneally with a bolus of 25 mg drug per kg of bodyweight (BW), daily. As a secondary control, mice were dosed with the 65% DMSO/PBS vehicle to monitor changes in body score based on the vehicle alone.
# VE-Cdh, aSMact, Cd34 = test: qPCR of retrieved tumors: VE-Cdh, aSMact, Cd34; settings: crystals, compared to daily bolus; tumors at end of study
# Description: To determine the anti-angiogenic efficacy of each sorafenib treatment group, qPCR gene expression analysis was performed on retrieved tumors at the conclusion of the study. In particular, analysis for levels of endothelial cell marker Cd31, vascular endothelial-cadherin (VE-Cdh), smooth muscle pericyte marker alpha Smooth Muscle actin (aSMact), and stem/progenitor cell marker Cd34 were conducted, as shown in FIG. 3F.
# 1 mL of TRIzol reagent (Cat#15596018, ThermoFisher) was added to 100 mg samples of tumor tissue and broken down with a power homogenizer (Polytron/VWR). Homogenized samples were incubated at room temperature for 5 min for complete nucleoprotein dissociation, then 0.2 ml of chloroform (Sigma) was added to each sample. Samples were shaken vigorously for 15 seconds and incubated at room temperature for 3 min before centrifuging at 12,000 g for 15 min at 4° C. The uppermost supernatant layer was pipetted into a 1.7 mL Eppendorf tube, with the remaining interphase and organic layer discarded. 0.5 mL of isopropanol (Sigma) was added to each sample, and then samples were incubated for 10 min. Samples were centrifuged at 12,000 g for 10 min at 4° C. […] Depending on size of resultant pellet, pellets were resuspended in 50-100 μL, and nucleic acid concentration was measured using a NanoDrop 2000 spectrophotometer (ThermoFisher). […]
# 4T1 tumors = test: orthotopic parent 4T1 TNBC tumor growth
# Description: Namely, 4T1 tumors were treated with either PBS (PBS CONTROL), intraperitoneal (IP) bolus sorafenib (25 mg/kg BW/day) (IP BOLUS), 3 mg IP injected sorafenib crystals (IP CRYSTAL 3 MG), or sorafenib crystals (3 mg: SC CRYSTAL (3 MG); 10 mg: SC CRYSTAL (10 MG)) injected around developed tumors in the subcutaneous (SC) mammary fatpad. Furthermore, to truly test the utility of crystalline sorafenib in treating such an aggressive TNBC model, treatment was carried out retrospectively and only started once tumor volumes reached ˜225-250 mm^3. A positive control liquid-dissolved and daily injected drug treatment group was included, where mice were dosed with a daily bolus of 25 mg sorafenib/kg of mouse BW. […] This may be supported by our prior observation that in the IP compartment, where there is higher 10 liquid turnover as compared to the SC space, crystalline drugs usually have a faster kinetic of release over time.
# 4T1 or 4T1-luc2 cells were trypsinized using 0.25% Trypsin-EDTA, then diluted with the appropriate complete culture media and spun in a centrifuge at 300 g for 5 min. The supernatant was aspirated, and the pellet was re-suspended in serum-free RPMI 1640. The solution was centrifuged again, and the supernatant aspirated. Re-suspension, centrifugation, and aspiration was repeated once more. 5 mL of RPMI-1640 was then added to the pellet. 10 μL of the cell suspension was removed and mixed with 10 μL of Trypan blue stain 0.4% (ThermoFisher). Cells were counted with a Countess automated cell counter. Cell solutions were centrifuged one more time, the supernatant aspirated, and the pellet resuspended in the amount of RPMI-1640 required to achieve a concentration of 5×10^5 cells/200 μL of media. Tumor cells were then administered orthotopically in naive (and anesthetized) BALB/c mice into the right inguinal mammary fat pad 21 with 200 μL aliquots of the cell suspension, using an insulin syringe. Tumors were measured externally using a digital caliper, and volume was calculated (!″* (length * height) *−length * height). Except in the 4T1-luc2 trial, treatment began once tumors reached an average volume of 220-250 mm3. Experimental end point was deemed when solid tumors reached a volume of no more than 2000 mm3. Tumors were extracted and harvested, half stored in 4% paraformaldehyde diluted from 32% (Cat#50980495, Electron Microscopy Services) with DI H2O, and half frozen in liquid nitrogen, then stored at −80° C.
# Once tumors had reached an average volume of ˜220-250 mm^3, mice were administered either subcutaneously or intraperitoneally with 3 or 10 mg of crystalline sorafenib, diameter ˜150-200 μm, suspended in 200 μL of sterile saline using an 18 g needle. […]
smiles,measurement,setting,value
"CNC(=O)c1cc(Oc2ccc(NC(=O)Nc3ccc(Cl)c(C(F)(F)F)c3)cc2)ccn1 [crystalline sorafenib, sorafenib]",effect on bodyweight,[1],did not negatively affect bodyweight
same,"knockdown of VE-Cdh, aSMact and Cd34 (qPCR)","VE-Cdh, aSMact, Cd34",not as significant
same,tumor response (tumor volume),"4T1 tumors; single IP injection, 3 mg crystals",less response than 10 mg SC but more than a comparable 3 mg dose injected SC
same,tumor response (tumor volume),"4T1 tumors; single local SC injection, 10 mg crystals, start at ~225-250 mm^3",tumor stasis
same,tumor response (tumor volume),"4T1 tumors; single local SC injection, 2-3 mg crystals, start at ~225-250 mm^3",tumor delays only
